# In patent US7728107B2 (priority 2005, dated 2010):
# Where two headings read alike, the source gives them in different places.
# Legend:
# canine 5-HT2A receptor [1] = molecular target: T1, canine 5-HT2A receptor (Canis lupus familiaris, UniProt O46635); test: cell-based; assay type: cell-based; set-up: The resulting 5-HT2A full length cDNA was cloned into the pCIneo vector; expressed in transfected cells; conditions: for Rel. eff. c5-HT2A: HEK-293, fraction of response to 10 μM 5-HT; for agonist potency at canine 5-HT2A compared to human 5-HT2A: Table 3
# T1 sequence (O46635 whole entry): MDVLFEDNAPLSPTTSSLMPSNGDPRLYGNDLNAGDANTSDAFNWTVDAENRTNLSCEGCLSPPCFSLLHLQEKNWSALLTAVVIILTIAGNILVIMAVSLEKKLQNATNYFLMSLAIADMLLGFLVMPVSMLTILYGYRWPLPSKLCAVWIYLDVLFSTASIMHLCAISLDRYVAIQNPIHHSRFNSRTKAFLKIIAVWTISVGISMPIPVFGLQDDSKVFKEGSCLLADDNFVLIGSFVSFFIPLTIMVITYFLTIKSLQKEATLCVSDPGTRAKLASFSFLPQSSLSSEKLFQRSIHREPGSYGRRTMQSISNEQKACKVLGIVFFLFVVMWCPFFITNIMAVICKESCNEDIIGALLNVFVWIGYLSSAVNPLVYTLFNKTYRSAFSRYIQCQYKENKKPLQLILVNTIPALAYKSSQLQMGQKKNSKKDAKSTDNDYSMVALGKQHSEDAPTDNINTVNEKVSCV
# canine 5-HT2B receptor [2] = molecular target: T2, canine 5-HT2B receptor (Canis lupus familiaris, UniProt Q50DZ8); test: biochemical; assay type: binding; set-up: Apparent equilibrium dissociation constant KD; other: canine 5-HT2B, COS-7 membranes, mean ± S.E.M. (n = 3 to 6); other: COS-7 membranes; head prints [^3H]-ketanserin; mean ± S.E.M of 3-8 experiments; KD of radioligand; other: canine 5-HT2B, transfected COS-7 membranes; other: HEK-293, Ca^2+ FLIPR, mean ± S.E.M of 3 to 6 experime
# human 5-HT2B receptor [3] = molecular target: T3, human 5-HT2B receptor (Homo sapiens, UniProt P41595); test: biochemical; assay type: binding
# T3 construct: expressed in transfected cells
# T3 sequence (P41595 whole entry): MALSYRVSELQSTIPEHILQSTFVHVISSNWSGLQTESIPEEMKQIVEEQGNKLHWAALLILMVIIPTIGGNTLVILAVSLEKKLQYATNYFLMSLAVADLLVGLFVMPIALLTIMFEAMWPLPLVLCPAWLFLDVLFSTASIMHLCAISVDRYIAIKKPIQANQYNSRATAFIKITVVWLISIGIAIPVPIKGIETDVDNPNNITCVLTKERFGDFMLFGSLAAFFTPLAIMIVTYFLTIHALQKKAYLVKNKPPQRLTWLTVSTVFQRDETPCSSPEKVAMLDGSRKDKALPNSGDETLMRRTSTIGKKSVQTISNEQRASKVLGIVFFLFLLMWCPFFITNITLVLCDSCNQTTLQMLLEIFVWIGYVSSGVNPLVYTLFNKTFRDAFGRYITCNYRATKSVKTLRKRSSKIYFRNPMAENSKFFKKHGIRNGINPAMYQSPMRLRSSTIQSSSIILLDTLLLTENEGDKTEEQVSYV
# canine 5-HT2A receptor [4] = molecular target: T1, canine 5-HT2A receptor; test: biochemical
# canine 5-HT2B receptor [5] = molecular target: T2, canine 5-HT2B receptor; test: cell-based; assay type: cell-based; set-up: Apparent equilibrium dissociation constant KD; other: canine 5-HT2B, COS-7 membranes, mean ± S.E.M. (n = 3 to 6); other: COS-7 membranes; head prints [^3H]-ketanserin; mean ± S.E.M of 3-8 experiments; KD of radioligand; other: canine 5-HT2B, transfected COS-7 membranes; other: HEK-293, Ca^2+ FLIPR, mean ± S.E.M of 3 to 6 experime; conditions: for Rel. eff. c5-HT2B: HEK-293, fraction of response to 10 μM 5-HT
# human 5-HT2B receptor [6] = molecular target: T3, human 5-HT2B receptor; test: cell-based; assay type: cell-based; conditions: for Rel. eff h5-HT2B: fraction of response to 10 μM 5-HT
# human 5-HT2A receptor [7] = molecular target: T4, human 5-HT2A receptor (Homo sapiens, UniProt P28223); test: cell-based; assay type: cell-based
# T4 construct: expressed in transfected cells
# T4 sequence (P28223 whole entry): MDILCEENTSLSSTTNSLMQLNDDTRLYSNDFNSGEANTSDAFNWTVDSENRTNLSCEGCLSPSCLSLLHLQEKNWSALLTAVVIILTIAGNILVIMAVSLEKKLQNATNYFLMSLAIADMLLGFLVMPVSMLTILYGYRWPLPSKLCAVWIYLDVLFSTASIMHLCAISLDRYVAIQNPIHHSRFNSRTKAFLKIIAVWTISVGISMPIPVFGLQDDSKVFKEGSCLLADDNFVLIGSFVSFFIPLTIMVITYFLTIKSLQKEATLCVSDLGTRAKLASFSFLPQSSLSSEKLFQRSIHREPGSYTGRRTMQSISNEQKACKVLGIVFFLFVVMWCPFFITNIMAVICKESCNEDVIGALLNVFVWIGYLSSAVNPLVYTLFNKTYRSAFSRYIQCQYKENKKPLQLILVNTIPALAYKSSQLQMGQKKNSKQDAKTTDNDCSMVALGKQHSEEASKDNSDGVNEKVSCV
# human 5-HT2A receptor [8] = molecular target: T4, human 5-HT2A receptor; test: biochemical; assay type: binding
# canine 5-HT2A receptor [9] = molecular target: T1, canine 5-HT2A receptor; conditions: for Ratio c5-HT2A vs. h5-HT2A: ratio of binding affinities canine vs human 5-HT2A
# canine 5-HT2B receptor [10] = test: biochemical; assay type: binding; conditions: ratio of binding affinities canine vs human 5-HT2B
# canine 5-HT2A receptor [11] = molecular target: T1, canine 5-HT2A receptor; test: Saturation binding of [^3H]5-HT to membranes of COS-7 cells transfected with canine 5-HT2A receptor
# [12] = system: non-transfected cells (HEK-293, NIH3T3 or CHO); test: FLIPR Ca^2+ assay in non-transfected cells; assay type: cell-based; conditions: non-transfected HEK-293, CHO or NIH3T3 cells
# Protocol: Dye-loaded cells were plated onto 96-well ViewPlates (Packard, Meriden, Conn.) and incubated at 37° C. and 5% CO2 for one hour. Once dye-loaded, dye media was replaced with serum-free DMEM/F-12. […] Ligand-induced Ca^2+ release was measured using a Fluorometric Imaging Plate Reader (FLIPR, Molecular Devices, Sunnyvale, Calif.). Functional responses were measured as peak fluorescence intensity minus basal. The concentration of agonist that produced a half-maximal response is represented by the EC50 value. […] Antagonistic potency values were converted to apparent pKB values using a modified Cheng-Prusoff correction. Apparent pKB=−log IC50/1+[conc agonist/EC50]. Data are expressed as mean±S.E.M.
# None of the compounds (10 μM) tested elicited a response in non-transfected cells (HEK-293, NIH3T3 or CHO). In addition, none of the antagonists tested increased Ca^2+ in any of the transfected cell types.
# [13] = read-out: Affinity constant pKI c5-HT2B (converted)
# [14] = read-out: Affinity constant pKI h5-HT2B (converted)
# [15] = HEK-293, Ca^2+ FLIPR, apparent pKB, mean ± S.E.M of 3 to 6 experiments
# [16] = HEK-293, Ca^2+ FLIPR, apparent pKB, mean ± S.E.M of 3 to 6 experiments, read-out: Antagonist affinity pKB c5-HT2B (converted)
# [17] = CHO, Ca^2+ FLIPR, apparent pKB, mean ± S.E.M of 3 to 6 experiments, read-out: Antagonist affinity pKB h5-HT2B (converted)
smiles,measurement,setting,value
"Cc1nc2sccn2c(=O)c1CCN1CCC(=C(c2ccc(F)cc2)c2ccc(F)cc2)CC1 [Ritanserin, ritanserin]",Kb,canine 5-HT2A receptor [1],7.08 nM
same,Ki,canine 5-HT2B receptor [2],3.98 nM
same,Ki,human 5-HT2B receptor [3],4.57 nM
same,Ki,canine 5-HT2A receptor [4],7.59 nM
same,Kb,canine 5-HT2B receptor [5],10 nM
same,Kb,human 5-HT2B receptor [6],5.89 nM
CN1C[C@@H](NS(=O)(=O)N(C)C)C[C@@H]2c3cccc4c3c(cn4C)C[C@H]21 [[^3H]-mesulergine],Kd,"canine 5-HT2B receptor [2]; canine 5-HT2B, transfected COS-7 membranes, read-out: KD of radioligand",5.43 ± 0.69 nM
"COC(=O)[C@@H]1[C@H]2C[C@H]3c4[nH]c5ccccc5c4CCN3C[C@@H]2CC[C@@H]1O [Yohimbine, yohimbine]",Ki,canine 5-HT2B receptor [2],81.3 nM
same,Kb,canine 5-HT2B receptor [5],1.58 nM
O=C(c1ccc(F)cc1)C1CCN(CCn2c(=O)[nH]c3ccccc3c2=O)CC1 [[^3H]-ketanserin],Kd,canine 5-HT2A receptor [4],1.3 ± 0.12 nM
"COc1ccc2[nH]cc(C3=CCNCC3)c2c1 [RU-24969, 5-methoxy-3(1,2,3,6-tetrahydro-4-pyridiny)-1H-indole]",Ki,canine 5-HT2B receptor [2],12.9 nM
"NCCc1c[nH]c2ccc(C(N)=O)cc12 [5-CT, 5-carboxyamidotryptamine]",Rel. eff. h5-HT2A,human 5-HT2A receptor [7],0.70 ± 0.13
same,Rel. eff. c5-HT2A,canine 5-HT2A receptor [1],0.94 ± 0.08
same,agonist potency at canine 5-HT2A compared to human 5-HT2A,canine 5-HT2A receptor [1]; functional Ca^2+ assay,higher potencies
same,Ki,human 5-HT2A receptor [8],1150 nM
same,Ki,canine 5-HT2B receptor [2],74.1 nM
same,Ki,human 5-HT2B receptor [3],61.7 nM
same,Ki,canine 5-HT2A receptor [4],2290 nM
same,Ratio c5-HT2A vs. h5-HT2A,canine 5-HT2A receptor [9],1.99
same,Rel. eff. c5-HT2B,canine 5-HT2B receptor [5],1.19 ± 0.05
same,Rel. eff h5-HT2B,human 5-HT2B receptor [6]; CHO,0.95 ± 0.01
same,Ratio c5-HT2B vs. h5-HT2B,canine 5-HT2B receptor [10],1.20
NCCc1c[nH]c2ccc(O)cc12 [[^3H]-5-HT],Kd,canine 5-HT2A receptor [11],3 ± 0.6 nM
"COc1cc(CC(C)N)c(OC)cc1I (centres unmarked) [DOI, 1-(2,5-dimethoxy-4-iodophenyl)-2-aminopropane]",Rel. eff. h5-HT2A,human 5-HT2A receptor [7],0.65 ± 0.04
same,Rel. eff. c5-HT2A,canine 5-HT2A receptor [1],0.89 ± 0.02
same,Ki,canine 5-HT2B receptor [2],13.2 nM
same,Ki,human 5-HT2B receptor [3],15.1 nM
same,Ki,canine 5-HT2A receptor [4],12 nM
same,Rel. eff. c5-HT2B,canine 5-HT2B receptor [5],0.75 ± 0.03
same,Rel. eff h5-HT2B,human 5-HT2B receptor [6]; CHO,0.96 ± 0.02
"CN1CCc2cc(Cl)c(O)cc2[C@@H](c2ccccc2)C1 [SCH-23390, R-(+)-7-chloro-8-hydroxy-3-methyl-1-phenyl-2,3,4,5-tetrahydro(1H)-3-benzapine]",Ki,human 5-HT2A receptor [8],13.5 nM
same,Ki,canine 5-HT2B receptor [2]; [13],309 nM
same,Ki,human 5-HT2B receptor [3]; [14],275 nM
same,Ki,canine 5-HT2A receptor [4],16.2 nM
"NCCc1c[nH]c2ccc(O)cc12 [5-HT, 5-hydroxytryptamine]",Rel. eff. h5-HT2A,human 5-HT2A receptor [7],1
same,peak fluorescence intensity of Ca^2+ response,human 5-HT2A receptor [7],15800 peak fluorescence intensity units
same,Rel. eff. c5-HT2A,canine 5-HT2A receptor [1],1
same,peak fluorescence intensity of Ca^2+ response,"canine 5-HT2A receptor [1]; canine 5-HT2A, HEK-293, FIG. 5A",13600 peak fluorescence intensity units
same,Ca^2+ response in non-transfected cells,[12],No signal
same,Ki,canine 5-HT2A receptor [4],178 nM
"FC(F)(F)c1cccc(N2CCNCC2)c1 [TFMPP, N-(3-trifluoromethyl-henyl)piperazine]",Rel. eff. h5-HT2A,human 5-HT2A receptor [7],0.17 ± 0.01
same,Rel. eff. c5-HT2A,canine 5-HT2A receptor [1],0.72 ± 0.04
same,agonist potency at canine 5-HT2A compared to human 5-HT2A,canine 5-HT2A receptor [1]; functional Ca^2+ assay,higher potencies
same,Ki,human 5-HT2A receptor [8],87.1 nM
same,Ki,canine 5-HT2B receptor [2],41.7 nM
same,Affinity constant pKI h5-HT2B,"human 5-HT2B receptor [3]; CHO membranes, head: [^3H]-mesulergine, mean ± S.E.M of 3-8 experiments",7.40 ± 0.05
same,Ki,canine 5-HT2A receptor [4],214 nM
same,Ratio c5-HT2A vs. h5-HT2A,canine 5-HT2A receptor [9],2.45
same,agonistic response on canine 5-HT2B receptor,"canine 5-HT2B receptor [5]; HEK-293, Ca^2+ FLIPR",no agonistic response
same,Rel. eff h5-HT2B,human 5-HT2B receptor [6]; CHO,0.49 ± 0.04
same,Ratio c5-HT2B vs. h5-HT2B,canine 5-HT2B receptor [10],1.04
"O=C(c1ccc(F)cc1)C1CCN(CCn2c(=O)[nH]c3ccccc3c2=O)CC1 [Ketanserin, ketanserin]",Kb,canine 5-HT2A receptor [1],1.26 nM
same,Ki,canine 5-HT2B receptor [2],631 nM
same,Ki,canine 5-HT2A receptor [4],14.5 nM
same,Kb,canine 5-HT2B receptor [5],1580 nM
"CSc1ccc2c(c1)C(N1CCN(C)CC1)Cc1ccccc1S2 (centres unmarked) [Methiothepin, methiothepin]",Antagonist affinity pKB c5-HT2A,canine 5-HT2A receptor [1]; [15],8.33 ± 0.09
same,antagonist affinity for canine 5-HT2A receptor compared to human 5-HT2A receptor,"canine 5-HT2A receptor [1]; functional Ca^2+ assay, Table 4",eleven-fold higher affinity
same,Affinity constant pKI c5-HT2B,"canine 5-HT2B receptor [2]; COS-7 membranes, head prints [^3H]-ketanserin, mean ± S.E.M of 3-8 experiments",8.12 ± 0.16
same,Ki,canine 5-HT2A receptor [9],3.55 nM
same,Antagonist affinity pKB c5-HT2B,canine 5-HT2B receptor [5]; [15],8.07 ± 0.77
"CN1C[C@@H](NS(=O)(=O)N(C)C)C[C@@H]2c3cccc4c3c(cn4C)C[C@H]21 [Mesulergine, mesulergine]",Kb,human 5-HT2A receptor [7],58.9 nM
same,Kb,canine 5-HT2A receptor [1],25.1 nM
same,Ki,human 5-HT2A receptor [8],22.9 nM
same,Ki,canine 5-HT2B receptor [2]; [13],17 nM
same,Ki,human 5-HT2B receptor [3],8.71 nM
same,Ki,canine 5-HT2A receptor [4],91.2 nM
same,Kb,canine 5-HT2B receptor [5]; [16],0.501 nM
same,Kb,human 5-HT2B receptor [6],2.34 nM
"CC(N)Cc1c[nH]c2ccc(OCc3cccs3)cc12 (centres unmarked) [BW-723C86, 1-{5-(2-thienyl-methoxy)-1H-3-indolyl}propan-2-amine]",Ki,canine 5-HT2B receptor [2],26.3 nM
same,Rel. eff. c5-HT2B,canine 5-HT2B receptor [5],0.93 ± 0.03
same,Rel. eff h5-HT2B,human 5-HT2B receptor [6]; CHO,0.98 ± 0.01
"Cc1cc(NC(=O)Nc2ccc3c(ccn3C)c2)sn1 [SB-204741, N-(1-methyl-5-in-dolyl)-N′-(3-methyl-5-isothiazolyl) urea]",Kb,canine 5-HT2A receptor [1],> 10000 nM
same,Ki,canine 5-HT2B receptor [2]; [13],182 nM
same,Ki,human 5-HT2B receptor [3]; [14],120 nM
same,Ki,canine 5-HT2A receptor [4],> 10000 nM
same,Kb,canine 5-HT2B receptor [5]; [16],44.7 nM
same,Kb,human 5-HT2B receptor [6]; [17],44.7 nM
"CN(C)CCO/N=C(/C=C/c1ccc(O)cc1)c1ccccc1F [Eplivanserin, eplivanserin]",Kb,"human 5-HT2A receptor [7]; NIH3T3, Ca^2+ FLIPR, apparent pKB, mean ± S.E.M of 3 to 6 experiments, read-out: Antagonist affinity pKB h5-HT2A (converted)",0.372 nM
same,Kb,"canine 5-HT2A receptor [1]; HEK-293, Ca^2+ FLIPR, apparent pKB, mean ± S.E.M of 3 to 6 experiments, read-out: Antagonist affinity pKB c5-HT2A (converted)",0.251 nM
same,Ki,human 5-HT2A receptor [8]; read-out: Affinity constant pKI h5-HT2A (converted),0.2 nM
same,Ki,canine 5-HT2B receptor [2]; [13],1910 nM
same,Ki,human 5-HT2B receptor [3]; [14],1410 nM
same,Ki,canine 5-HT2A receptor [4],1 nM
same,Kb,canine 5-HT2B receptor [5]; [16],> 10000 nM
same,Kb,human 5-HT2B receptor [6]; [17],> 10000 nM
"Clc1cccc(N2CCNCC2)c1 [m-CPP, 1-(3-chlorophenyl)piperazine]",Rel. eff. h5-HT2A,human 5-HT2A receptor [7],0.20 ± 0.02
same,Rel. eff. c5-HT2A,canine 5-HT2A receptor [1],0.71 ± 0.04
same,agonist potency at canine 5-HT2A compared to human 5-HT2A,canine 5-HT2A receptor [1]; functional Ca^2+ assay,higher potencies
same,Ki,canine 5-HT2B receptor [2],20.9 nM
same,Ki,canine 5-HT2A receptor [4],195 nM
same,agonistic response on canine 5-HT2B receptor,"canine 5-HT2B receptor [5]; HEK-293, Ca^2+ FLIPR",no agonistic response
same,Rel. eff h5-HT2B,human 5-HT2B receptor [6]; CHO,0.55 ± 0.06
